Results on three compounds are retold here after US10376486B2, “Compositions and methods for reactivating latent viral infections” (priority 2014, dated 2019).

“Also recorded” adds a separate entry of the source.

Assay [1] concerns PEP005-induced HIV reactivation in J-Lat A1 cells. Kind of assay: Suppression of PEP005-induced HIV reactivation in J-Lat A1 cells (GFP expression by RT-qPCR). To be noted: 6 nM PEP005, PKC inhibitor 1, 2 or 5 μM, Bay 11-7082 2.5 μM. It counts as cell-based. How it is done:
FIG. 4: PEP005-induced HIV reactivation is mediated through PKCδ/θ-IκBα/ε-NF-κB signaling. (A) PEP005-induced HIV reactivation is suppressed by inhibition of the PKCδ/θ. J-Lat A1 cells were treated with 6 nM of PEP005 in the presence of 1, 2 or 5 μM of PKC inhibitor (PKCθ/δ inhibitor; Milipore/Calbiochem (539649)) and evaluated for GFP expression by RT-qPCR. (B) NF-κB inhibition partially suppresses PEP005-induced HIV reactivation in J-Lat A1 cells. J-Lat A1 cells were treated with 6 nM of PEP005 in the presence of 2.5 μM Bay 11-7082, an NF-κB inhibitor, and were evaluated for GFP expression by RT-qPCR. (C) J-Lat A1 cells were treated with PEP005 or alternatively with PKC inhibitor alone or in the presence of PEP005 and the relative binding of NF-κB to the HIV LTR was determined using ChIP-qPCR.
Real-time PCR analysis of GFP or HIV gene expression: Total RNA was isolated from J-Lat A1 cells or U1 cells using the RNeasy Kit (Qiagen) followed by digestion with DNase I (Invitrogen). First strand cDNA was synthesized using Superscript II (Invitrogen). Real-time PCR (TaqMan) was performed on a ViiA 7 detector using the following primer/probe set: for J-Lat A1 cells, primer 1: 5′-[…]-3′ (SEQ ID NO:5), primer 2: 5′-[…]-3 ‘ (SEQ ID NO:6), probe 5’-FAM CTACAAGACCC G[…]-3′ (SEQ ID NO:7), for U1 cells HIV 5′ LTR primers/probe were used (see above). […]

Assay [2] has as its system latent HIV in J-Lat A1 cells. Kind of assay: HIV latency reactivation in J-Lat A1 cells (GFP expression by flow cytometry). The format is cell-based. To be noted: GFP, 24 h, PEP005 2-40 nM, GSK343 2 μM. The method, then:
FIG. 1: PEP005 induces reactivation of HIV latency in vitro. J-Lat A1 cells were exposed to different concentrations of PEP005 and virus reactivation was measured by GFP expression using flow cytometry. Cell viability was determined by Live/Dead dye staining. (A) Chemical Structure of PEP005. […] (D) PEP005 potently reactivates latent HIV in cell lines compared with other LRAs. J-Lat A1 cells were treated with 10 nM PEP005, 500 nM SAHA, 2 μM JQ1, 2 μM GSK343, 10 ng/ml TNF, 2 μM Prostratin, or 5 ng/ml PMA for 24 hours and the percentage of GFP expression was evaluated using flow cytometry. *, p<0.05; **, p<0.01.
FIG. 2: PEP005 synergizes with other latency reversing agents in reactivating latent HIV. (A) J-Lat A1 cells were treated with 5 ng/ml PMA, 6 nM PEP005, 500 nM SAHA, 2 μM JQ1, 2 μM GSK343, or 10 μM Prostratin alone or in combination with 6 nM PEP005 for 24 hours and the percentage of GFP expressing cells was determined using flow cytometry. **, p<0.01; *, p<0.05 compared with control treatment; **, p<0.01; *, p<0.05 compared with PEP005 treatment alone. (B) The U1 cells were treated with 5 ng/ml PMA, 6 nM PEP005, 500 nM SAHA, 2 μM JQ1, or 2 μM GSK343, alone or in combination with 6 nM PEP005 for 24 hours and the HIV transcription was evaluated using RT-qPCR. Numbers indicate fold-increase over the control. **, p<0.01; *, p<0.05 compared with control treatment; **, p<0.01; *, p<0.05 compared with PEP005 treatment alone. […] The Bliss independence model was utilized for calculation of synergy for LRA combinations. Dotted horizontal line signifies pure additive effect (Δfaxy=0). Synergy is defined as Δfaxy>0 while Δfaxy<0 indicates antagonism. Statistical significance was determined using a one tailed ratio t-test comparing predicted and observed drug combination effects. *p<0.05; **p<0.01.
J-Lat A1 cells (harboring a single copy of latent HIV LTR and one copy of green fluorescent protein gene under the HIV LTR control) or U1 cells (harboring two latent HIV genomes with defective Tat gene) were cultured in RPMI1640 medium with 10% fetal bovine serum (FBS) and 1% Pen/strep in a 37° C. incubator containing 5% CO2 [24,31]. Both of the cell lines were obtained from NIH AIDS Reagent Program. For reactivation of HIV LTR, cells were treated with PMA (Sigma), JQ1 (Biovision), Prostatin (Sigma), SAHA (Santa Cruz), TNF-α (BD), GSK343 (Sigma), or PEP005 (Tocris Bioscience) for 24 h. HIV reactivation was quantified by GFP expression using flow cytometry and the data were analyzed using FlowJo Software for J-Lat A1 cells, or by quantitative RT-PCR (RT-qPCR) for J-Lat A1 and U1 cells. Cell viability was evaluated using Live/Dead dye (Life Technologies) by flow cytometry. So far, there is not a single in vitro cell culture model available that captures all the features of HIV latency. However, PKC agonists seem to reactivate latent HIV in all the cell culture models of viral latency. Similar to other J-Lat cell lines, the J-Lat A1 clone has been widely used by researchers for HIV latency studies. The T-cell-derived J-Lat A1 cells harbor one copy of a construct containing a Tat and a green fluorescent protein (GFP) gene framed by the 5′ and 3′ HIV LTR [32]. The J-Lat A1 cells also contain the TAR loop located within the R region of HIV LTR (nt +1 to +60), which provides an opportunity for Tat-TAR interactions for the modulation of transcription and transcriptional elongation. […]
(A flow cytometer gives signals particle by particle.)

In assay [3] the test system is PKCδ/θ-IκBα/ε-NF-κB signaling. The settings on record: IngB treatment; cited from earlier work.

Take `Cc1ccc(S(=O)(=O)/C=C/C#N)cc1` [Bay-11-7082]: the “reduction of PEP005-induced latent HIV reactivation” value in assay [1] is given as “approximately 50%”.

As for `CCCc1cc(C)[nH]c(=O)c1CNC(=O)c1cc(-c2ccnc(N3CCN(C)CC3)c2)cc2c1cnn2C(C)C` [GSK343], in assay [2], the “induction of HIV expression, agent alone” value was “failed to induce HIV expression; also recorded: could not effectively induce HIV expression; also recorded: no capacity to reactivate latent HIV by itself”.

For the compound `CCCCCC(=O)O[C@H]1C(C)=C[C@]23C(=O)[C@@H](C=C(CO)[C@@H](O)[C@]12O)[C@H]1[C@@H](C[C@H]3C)C1(C)C` [IngB, ingenol-3-hexanoate], the “expression of NF-κB/p65 protein, earlier report [24]” value in assay [3] is on record as “increased expression of NF-κB/p65 protein”.
